Results as given in patent US20240285808A1, “MOLECULAR PROBES FOR IN VIVO DETECTION OF ALDEHYDES” (The General Hospital Corporation, priority 2021, published 2024).

Tests used:
[1] = test system: liver of CCl4 injured mice; type: in vivo, mouse; settings: CCl4 injured mice
Method: CCl4 Liver Fibrosis Model:
Male C57BL/6 mice (Charles River Laboratories, Wilmington, MA) were treated with carbon tetrachloride for 12 weeks (0.1 ml of 20% CCl4 in olive oil the first week, 30% the second week, and 40% from weeks 3-12) by oral gavage, 2-3 times per week. Control mice were fed vehicle (olive oil) only.
A total of 53 C57BL/6 mice were included to study CCl4 induced hepatic fibrosis: • A. CCl4 for 12 weeks (n=20). Each mouse was imaged with probe 1 and then imaged again 24 hours later with probe 2. Probe 1 and Probe 2 were randomly chosen from GdDOTA, GdCHyd, Mn-12, Gd-9 and Gd-10. • B. Vehicle treated control (n=20). Each mouse was imaged with probe 1 and then imaged again 24 hours later with probe 2. Probe 1 and Probe 2 were randomly chosen from GdDOTA, Mn-12, GdCHyd, Gd-9, Gd-10. • C. CCl4 for 12 weeks (n=3, another 3 pair-wise comparison have been done in group A). Each mouse was imaged with probe 1 and then imaged again 24 hours later with probe 2. […] Each mouse was imaged with probe 1 and then imaged again 24 hours later with probe 2. Probe 1 and Probe 2 were randomly choosing from Gd-9 and Gd-10. • E. CCl4 for 12 weeks (n=3). Each mouse was imaged with Gd-9. After 24 hours, the same mouse was first injected with 1000 μmol/kg of Yb-9 and then injected with 100 μmol/kg of Gd-9 15 min after the Yb-9 injection.
Animals were anesthetized with isoflurane (1-2%) and placed in a specially designed cradle with body temperature maintained at 37° C. The inhaled isoflurane level was adjusted to maintain a respiration rate of 60±5 breaths per minute. The tail vein was cannulated for intravenous (i.v.) delivery of the contrast agent while the animal was positioned in the scanner. Imaging was performed at 4.7 T using a small bore animal scanner with a custom-built volume coil. Mice were imaged with a dose of 100 μmol/kg from 30 mM stock solution of Gd or Mn complex.
For mice liver imaging, a series of baseline images (3D T1 weighted fast low angle shot magnetic resonance imaging (FLASH)) were first acquired (repetition time/echo time=15/2 ms; flip angle, 30°; field of view, 48×30 mm^2; matrix size, […]; slice thickness, 0.25 mm; acquisition time, 3 minutes 20 seconds), then a bolus of Gd or Mn complex was administered i.v. and imaging performed for a period of 45 min p.i. with the repetition acquisition of 3D T1 weighted FLASH sequences. Following the imaging session, animals were sacrificed (75 min p.i.) and liver tissue was subjected to histopathologic analysis.
For liver imaging analysis, a region of interest (ROI) was manually traced encompassing the liver parenchyma while avoiding major blood vessels. A second ROI was placed on the dorsal muscle visible in the same image slice to quantify the signal intensity in the muscle for comparison. Seven ROIs were placed in the field of view without any tissue (air) to measure the variation in background signal. More than 20 axial slices per mouse across the entire liver were analyzed in this fashion. […] Contrast to noise ratio (CNR) was calculated by measuring the difference in signal intensity (SI) between liver and muscle and normalizing to the standard deviation of the signal in the air, eq 21. ΔCNR was calculated by subtracting CNR measured prior to probe injection (CNRPre) from CNR measured after injection (CNRPost), eq 22. […]

[2] = test system: lungs of bleomycin-injured mice; test: PET probe lung uptake in naïve and bleomycin-injured mice (gamma counter); type: in vivo, mouse; settings: 90 min post injection; for Lung uptake, Bleo: 14 days post bleomycin injury; for Lung uptake, Naïve: naïve mice
Method: C57Bl/6 adult male mice at 8 weeks of age (Jackson Laboratories, Barr Harbor, ME) received a single intratracheal dose of bleomycin, 1 units/kg body weight (50 μL total volume) (Fresenius Kabi, Lake Zurich, Il) as previously described in Desogere, P., et al. Optimization of a Collagen-Targeted PET Probe for Molecular Imaging of Pulmonary Fibrosis. J Nuc Med 58, 1991-1996 (2017).
Imaging and Biodistribution Study for Selectivity of Allysine-Reactive Probes In Vivo:
(§1) Bleomycin-injured mice at 14 days after injury were sedated and then injected with Compound 19, Compound 20, Gd-CHyd (Akam, E. A., et al. Improving the reactivity of hydrazine-bearing MRI probes for in vivo imaging of lung fibrogenesis. Chemical Science 11, 224-231 (2020)) formulated to contain an equal concentration of Eu-DOTA as a non-binding control probe. Animals were then euthanized at 30 minutes after injection. The lungs were harvested separately, along with blood, tail and liver. Each sample was analyzed by ICP-MS for gadolinium and europium content, and the lungs were also assessed for hydroxyproline content. Selectivity is reported as the ratio of Gd to Eu. All animals were dosed via tail vein injection at 100 nmol/g body weight from 30 mM solutions of gadolinium probes with 30 mM Eu-DOTA as determined by ICP-MS. For PET probes, Compounds 1-8 were radiolabeled with either ^68Ga or ^64Cu and the dose was delivered as a bolus injection through tail vein. Animals were euthanized 90 min post injection and their organs and tissues were harvested and counted using a gamma counter. For an imaging study with a PET tracer, animals were injected inside PET/MRI scanner and scanned dynamically for 60 min under anesthesia. The animals were euthanized 90 min post injection and their organs and tissues were counted using a gamma counter. The biodistribution of Mn-15, Mn-16, Mn-17, and Mn-18 was determined by injecting a mixture of ^52/nat complex into naïve mice and activity in each tissue were measured 24 hours post injection.

[3] = test system: lungs of bleomycin-injured mice; test: ^68Ga-7 PET/MRI imaging and organ counts in bleomycin-injured and naïve mice; type: in vivo, mouse; settings: for probe uptake in lungs, PET scans: 55 min p.i.; for probe uptake in lungs, organ counts: 90 min p.i.
Method: as §1
Probe ^68Ga-7 was synthesized in 5 steps. Male C57BL/6 mice were intratracheally instilled with bleomycin (1.2 U/kg) and imaged after 14 days when allysine levels peak in the lung. Bleomycin injured mice or age-matched controls were placed in a micro-PET/MRI scanner and administered ^68Ga-7 as a bolus via the lateral tail vein and dynamically imaged for 60 minute. At 90 min p.i. animals were euthanized, and their organs were harvested for gamma counting. After gamma counting, lungs were flash-frozen and later analyzed for hydroxyproline (total collagen, fibrosis measure) and allysine content.

[4] = target: T1, BSA-ALD (oxidized bovine serum albumin containing allysine aldehyde groups) (Bos taurus, UniProt P02769); test: Relaxivity measurements with BSA-Ald; type: binding; settings: 1.4 T, 37° C., BSA-Ald 10 mg/mL
T1 construct: made in house; host or cells: no expression host: BSA oxidised chemically with sodium ascorbate, ferric chloride and H2O2, then desalted on PD-10
T1 sequence (P02769 25-607): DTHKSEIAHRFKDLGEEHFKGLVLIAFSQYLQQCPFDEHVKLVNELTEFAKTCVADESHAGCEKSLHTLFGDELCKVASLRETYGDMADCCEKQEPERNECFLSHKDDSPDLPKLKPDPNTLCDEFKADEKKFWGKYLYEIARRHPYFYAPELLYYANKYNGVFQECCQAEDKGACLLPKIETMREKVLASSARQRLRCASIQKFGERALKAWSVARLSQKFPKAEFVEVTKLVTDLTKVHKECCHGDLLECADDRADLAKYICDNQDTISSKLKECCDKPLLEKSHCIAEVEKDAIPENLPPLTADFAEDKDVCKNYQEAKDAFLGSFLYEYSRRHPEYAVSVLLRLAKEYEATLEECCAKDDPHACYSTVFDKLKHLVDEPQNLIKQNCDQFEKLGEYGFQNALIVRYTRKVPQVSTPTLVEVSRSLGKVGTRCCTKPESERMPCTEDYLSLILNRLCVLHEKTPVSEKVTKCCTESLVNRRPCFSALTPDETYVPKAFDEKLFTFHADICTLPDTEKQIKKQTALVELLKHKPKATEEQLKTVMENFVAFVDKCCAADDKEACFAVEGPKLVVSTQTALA
Method: Preparation of Allysine Containing Bovine Serum Albumin, BSA-ALD:
To a solution of bovine serum albumin (BSA) (100 mg) dissolved in phosphate buffered saline (4 mL, pH 7.4, 0.25 mM), sodium ascorbate (20 mg), ferric chloride (120 μL, 10 mM) and 20 μL H2O2 (30% w) were added. The reaction was stirred at 37° C. for 24 hours, and sodium ascorbate (20 mg) was added repeatedly every 8 hours. After the reaction, protein was purified using PD-10 Sephadex G25 desalting columns (GE Healthcare), eluted with PBS. Protein concentration was assessed using the ‘BCA Protein Assay Kit’ (Thermo Scientific). Protein carbonyl concentration was determined by ‘Protein Carbonyl Content Assay Kit’ (Sigmal-Aldrich).
Alternatively, preparation of BSA^Ald and binding of Gd^3+ probe to protein was carried out according to modified procedures. To a solution of bovine serum albumin (BSA) (100 mg) dissolved in phosphate buffered saline (4 mL, pH 7.4, 0.25 mM) was added sodium ascorbate (20 mg), ferric chloride (120 μL, 10 mM) and 20 μL H2O2 (30% w). The reaction was stirred at 37° C. for 24 h, and sodium ascorbate (20 mg) was added repeatedly every 8 h. After 24 h, the protein was purified using PD-10 Sephadex G25 desalting columns (GE Healthcare), eluted with PBS. Protein concentration was assessed using the ‘Micro BCA Protein Assay Kit’ (Thermo Scientific, 23235). Protein carbonyl concentration was determined by ‘Protein Carbonyl Content Assay Kit’ (Sigma-Aldrich, MAK094-1KT). […] The protein solutions were kept at a concentration of 20 mg/mL for further use.
(§2) BSA-ALD (10 mg/mL) or BSA (10 mg/mL) were treated for 24 hours at 37° C. with the corresponding Gd or Mn complex at a range of concentrations (0.01-0.2 mM), with a total volume of 300 μL maintained for all samples. After 24 hours, an aliquot of the solution (50 μL) was used for longitudinal (T1) relaxation measurements, recorded using a Bruker mq60 Minispec at 1.41 T and 37° C. Longitudinal (T1) relaxation times were measured via an inversion recovery experiment using 10 inversions of duration ranging between 0.05×T1 and 10×T1. Solutions (concentration range: 0.1 mM-1.0 mM) in PBS were run in parallel. To measure the relaxivity of BSA-bound species, sodium cyanoborohydride (10 mg) was added to the solution to irreversibly bind the probe to the protein. After a further 2h incubation at 37° C., protein-bound and protein-free solutions were separated by ultrafiltration. Then 200 μL PBS was added to the residue to dissolve the protein. Longitudinal (T1) relaxation times for the bounded species were measured using a Bruker mq60 Minispec at 1.41 T and 37° C. After the measurement, concentration of corresponding metal ion (Gd/Mn) in the residue and filter were both determined using an Agilent 8800 ICP-MS system. Relaxivity (r1) was determined from the slope of a plot of 1/T1 vs metal concentration for 5 concentrations.

[5] = Relaxivity measurements in PBS; type: physicochemical; settings: 1.4 T, 37° C.
Method: as §2

[6] = target: bovine serum albumin (BSA) (Bos taurus, UniProt P02769); test: Relaxivity measurements with BSA; type: binding; settings: 1.4 T, 37° C., BSA 10 mg/mL
bovine serum albumin (BSA), sequence (P02769 25-607): as above
Method: as §2

Compound | Lung uptake, Bleo [2] [% ID/g] | Lung uptake, Naïve [2] [% ID/g] | further results
NN1CCN(C(=O)CCC(C(=O)[O-])N2CCN(CC(=O)[O-])CCN(CC(=O)[O-])CCN(C(CCC(=O)N3CCN(N)CC3)C(=O)[O-])CC2)CC1.[Yb+3] (stereo not shown) [Yb-9] |  |  | blocking of Gd-9 liver MRI enhancement ([1]; 10-fold dose (1000 μmol/kg) 15 minutes before Gd-9): completely eliminated liver MRI enhancement with Gd-9
NC(Cn1cccc1)C(=O)NCCOCCOCCOCCNC(=O)CN1CCN(CC(=O)[O-])CCN(CC(=O)[O-])CC1.[64Cu+2] (stereo not shown) [^64Cu-2] | 0.42 | 0.26 | 
O=C([O-])CN1CCN(CC(=O)[O-])CCN(CC(=O)NCCOCCOCCOCCNC(=O)CN2C(=O)CSC2=S)CC1.[64Cu+2] [^64Cu-4] | 0.66 | 0.38 | 
NN1CCN(C(=O)CCOCCOCCOCCOCCNC(=O)CN2CCN(CC(=O)[O-])CCN(CC(=O)[O-])CC2)CC1.[68Ga+3] [^68Ga-1] | 0.99 | 0.27 | 
NC(Cn1cccc1)C(=O)NCCOCCOCCOCCNC(=O)CN1CCN(CC(=O)[O-])CCN(CC(=O)[O-])CC1.[68Ga+3] (stereo not shown) [^68Ga-2] | 0.96 | 0.45 | 
Cc1cc(O)n(CC(=O)NCCOCCOCCOCCNC(=O)CN2CCN(CC(=O)[O-])CCN(CC(=O)[O-])CC2)n1.[68Ga+3] [^68Ga-3] | 2.13 | 0.82 | 
O=C([O-])CN1CCN(CC(=O)[O-])CCN(CC(=O)NCCOCCOCCOCCNC(=O)CN2C(=O)CSC2=S)CC1.[68Ga+3] [^68Ga-4] | 0.61 | 0.24 | 
NNC(=O)C(N)CCC(=O)NCCOCCOCCOCCNC(=O)CN1CCN(CC(=O)[O-])CCN(CC(=O)[O-])CC1.[68Ga+3] (stereo not shown) [^68Ga-5] | 0.88 | 0.30 | 
CNCCC1=NN(CC(=O)NCCOCCOCCOCCNC(=O)CN2CCN(CC(=O)[O-])CCN(CC(=O)[O-])CC2)C(=O)C1.[68Ga+3] [^68Ga-6] | 1.32 | 0.84 | 
NNC(CCC(=O)NCCOCCOCCOCCNC(=O)CN1CCN(CC(=O)[O-])CCN(CC(=O)[O-])CC1)C(=O)O.[68Ga+3] (stereo not shown) [^68Ga-7] |  |  | probe uptake in lungs, PET scans ([3]; Bleomycin injured mice (n = 5)): 0.51 % ID/cc; probe uptake in lungs, organ counts ([3]; Bleomycin injured mice (n = 5)): 2.65 % ID/g; probe uptake in lungs, PET scans ([3]; Naïve mice (n = 4)): 0.23 % ID/cc; probe uptake in lungs, organ counts ([3]; Naïve mice (n = 4)): 0.886 % ID/g; uptake in bleomycin injured lung compared to ^68Ga-NODAGA-indole ([3]; mouse, in vivo): twice the uptake; blood clearance and elimination ([3]; naïve animal): rapid blood clearance
GdDOTA [reference compound] |  |  | r1, +BSA-Ald [4]: 4.0 mM⁻¹ s⁻¹; liver enhancement ([1]; 45 min p.i.): no significant liver enhancement; ΔCNR (liver to muscle) ([1]; 45 min post injection, 100 μmol/kg i.v., group mean): 0.1 ± 0.2; r1, PBS [5]: 4.0 mM⁻¹ s⁻¹; r1, +BSA [6]: 4.0 mM⁻¹ s⁻¹
